Laboratory results published in ChEMBL document CHEMBL6087389, “Hydrazone-Functionalized trans-A2B-Corroles: Effective Synergy in Photodynamic Therapy of Lung Cancer” (J Med Chem, 2024).
Blank lines part the entries; values can stand above or below the compound they belong to. Active and inactive are the calls of the source. No cut-off for these calls is given here.

How the values were obtained:
[1] = Phototoxicity against human A549 cells assessed as reduction in cell viability preincubated for 24 hrs followed by 7.5 to 10 mW/cm^-2 red light irradiation and measured after 24 hrs by MTT assay; format: functional, cell-based; details: A549, light or radiation study
[2] = Fluorescence property of the compound in THF assessed as fluorescence quantum yield by photoluminescence quantum yield spectrometer; format: physicochemical
[3] = Fluorescence property of the compound in DMSO assessed as fluorescence quantum yield by photoluminescence quantum yield spectrometer; format: physicochemical
[4] = Induction of singlet oxygen generation in THF assessed as singlet oxygen quantum yield by comparative photoluminescence method; format: functional
[5] = Phototoxicity against human NCI-H1299 cells assessed as reduction in cell viability preincubated for 24 hrs followed by 7.5 to 10 mW/cm^-2 red light irradiation and measured after 24 hrs by MTT assay; format: functional, cell-based; details: NCI-H1299, light or radiation study
[6] = test system: A549; test: Dark toxicity against human A549 cells assessed as reduction in metabolic activity at <1 uM incubated for 4 hrs by MTT assay; format: cell-based; details: a549, 4 h
[7] = test system: NCI-H1299; test: Dark toxicity against human NCI-H1299 cells assessed as reduction in metabolic activity at <1 uM incubated for 4 hrs by MTT assay; format: cell-based; details: nci-h1299, 4 h
[8] = test system: A549; test: Dark toxicity against human A549 cells assessed as reduction in metabolic activity at 10 uM incubated for 4 hrs by MTT assay; format: cell-based; design: scale not given: the % may be the effect or the level left; details: a549, 4 h
[9] = test system: NCI-H1299; test: Dark toxicity against human NCI-H1299 cells assessed as reduction in metabolic activity at 10 uM incubated for 4 hrs by MTT assay; format: cell-based; details: nci-h1299, 4 h
[10] = Fluorescence property of the compound in toluene assessed as fluorescence quantum yield by photoluminescence quantum yield spectrometer; format: physicochemical
[11] = test system: A549; test: Dark toxicity against human A549 cells assessed as reduction in metabolic activity at 5 uM incubated for 4 hrs by MTT assay relative to control; format: cell-based; design: scale not given: the % may be the effect or the level left; details: a549, 4 h
[12] = test system: A549; test: Photocytotoxicity in human A549 cells assessed as cell viability at 10 uM measured after 24 hrs by MTT assay relative to control; format: functional; details: read-out: Activity
[13] = test system: A549; test: Reduction in hydrogen peroxide production in human A549 cells irradiated with 7.5 to 10 mW/cm^-2 red light for 24 hrs at 100 to 250 nM measured after 2 hrs by DHE and DCFH2-DA staining based fluorimetric analysis; format: functional, cell-based; details: dose 100-250 nM
[14] = test system: NCI-H1299; test: Reduction in hydrogen peroxide production in human NCI-H1299 cells irradiated with 7.5 to 10 mW/cm^-2 red light for 24 hrs at 0 to 250 nM incubated for 2 hrs by DHE and DCFH2-DA staining based fluorimetric analysis; format: functional, cell-based; details: dose 0-250 nM
[15] = test system: NCI-H1299; test: Induction of superoxide anion production in human NCI-H1299 cells irradiated with 7.5 to 10 mW/cm^-2 red light for 24 hrs at 100 to 250 nM incubated for 2 hrs by DHE and DCFH2-DA staining based fluorimetric analysis; format: functional, cell-based; details: dose 100-250 nM
[16] = test system: A549; test: Induction of superoxide anion production in human A549 cells irradiated with 7.5 to 10 mW/cm^-2 red light for 24 hrs at 100 to 250 nM incubated for 2 hrs by DHE and DCFH2-DA staining based fluorimetric analysis; format: functional, cell-based; details: dose 100-250 nM
[17] = test system: A549; test: Induction of apoptosis in human A549 cells assessed as reduction in viable cells at 500 nM preincubated for 24 hrs followed by irradiated with 7.5 to 10 mW/cm^-2 red light for 24 hrs by Annexin V and propidium iodide staining based flow cytometry relative to control; format: functional; details: time 48 hrs
[18] = test system: A549; test: Induction of apoptosis in human A549 cells assessed as reduction in viable cells at 100 nM preincubated for 24 hrs followed by irradiated with 7.5 to 10 mW/cm^-2 red light for 24 hrs by Annexin V and propidium iodide staining based flow cytometry relative to control; format: functional; details: time 48 hrs
[19] = test system: A549; test: Induction of apoptosis in human A549 cells assessed as increase in apoptotic cells at 100 nM preincubated for 24 hrs followed by irradiated with 7.5 to 10 mW/cm^-2 red light for 24 hrs by Annexin V and propidium iodide staining based flow cytometry relative to control; format: functional; details: time 48 hrs
[20] = test system: A549; test: Induction of apoptosis in human A549 cells assessed as increase in apoptotic cells at 500 nM preincubated for 24 hrs followed by irradiated with 7.5 to 10 mW/cm^-2 red light for 24 hrs by Annexin V and propidium iodide staining based flow cytometry relative to control; format: functional; details: time 48 hrs
[21] = test system: A549; test: Induction of apoptosis in human A549 cells assessed as late apoptotic cells at 100 nM preincubated for 24 hrs followed by irradiated with 7.5 to 10 mW/cm^-2 red light for 24 hrs by Annexin V and propidium iodide staining based flow cytometry relative to control; format: functional; details: time 48 hrs
[22] = test system: A549; test: Induction of apoptosis in human A549 cells assessed as late apoptotic cells at 500 nM preincubated for 24 hrs followed by irradiated with 7.5 to 10 mW/cm^-2 red light for 24 hrs by Annexin V and propidium iodide staining based flow cytometry relative to control; format: functional; details: time 48 hrs
[23] = test system: A549; test: Induction of apoptosis in human A549 cells assessed as necrotic cells at 100 nM preincubated for 24 hrs followed by irradiated with 7.5 to 10 mW/cm^-2 red light for 24 hrs by Annexin V and propidium iodide staining based flow cytometry relative to control; format: functional; details: time 48 hrs
[24] = test system: A549; test: Induction of apoptosis in human A549 cells assessed as necrotic cells at 500 nM preincubated for 24 hrs followed by irradiated with 7.5 to 10 mW/cm^-2 red light for 24 hrs by Annexin V and propidium iodide staining based flow cytometry relative to control; format: functional; details: time 48 hrs
[25] = test system: A549; test: Photocytotoxicity in human A549 cells assessed as metabolic activity in presence of sodium azide measured preincubated for 24 hrs followed by irradiated with 7.5 to 10 mW/cm^-2 red light for 24 hrs by MTT assay; format: functional, cell-based; details: A549, light or radiation study
[26] = test system: NCI-H1299; test: Induction of apoptosis in human NCI-H1299 cells assessed as reduction in viability at 100 to 500 nM preincubated for 24 hrs followed by irradiated with 7.5 to 10 mW/cm^-2 red light for 24 hrs by Annexin V and propidium iodide staining based flow cytometry relative to control; format: functional; details: dose 100-500 nM, time 48 hrs
[27] = test system: NCI-H1299; test: Induction of apoptosis in human NCI-H1299 cells assessed as late apoptotic/necrotic cells at 100 nM preincubated for 24 hrs followed by irradiated with 7.5 to 10 mW/cm^-2 red light for 24 hrs by Annexin V and propidium iodide staining based flow cytometry relative to control; format: functional; details: time 48 hrs
[28] = test system: NCI-H1299; test: Induction of apoptosis in human NCI-H1299 cells assessed as late apoptotic/necrotic cells at 500 nM preincubated for 24 hrs followed by irradiated with 7.5 to 10 mW/cm^-2 red light for 24 hrs by Annexin V and propidium iodide staining based flow cytometry relative to control; format: functional; details: time 48 hrs
[29] = test system: NCI-H1299; test: Induction of apoptosis in human NCI-H1299 cells assessed as early apoptotic cells at 100 nM preincubated for 24 hrs followed by irradiated with 7.5 to 10 mW/cm^-2 red light for 24 hrs by Annexin V and propidium iodide staining based flow cytometry relative to control; format: functional; details: time 48 hrs
[30] = test system: NCI-H1299; test: Induction of apoptosis in human NCI-H1299 cells assessed as early apoptotic cells at 500 nM preincubated for 24 hrs followed by irradiated with 7.5 to 10 mW/cm^-2 red light for 24 hrs by Annexin V and propidium iodide staining based flow cytometry relative to control; format: functional; details: time 48 hrs
[31] = test system: NCI-H1299; test: Induction of apoptosis in human NCI-H1299 cells assessed as appearance of necrosis at 100 to 250 nM preincubated for 24 hrs followed by irradiated with 7.5 to 10 mW/cm^-2 red light for 24 hr by May-Grunwald/Giemsa staining by light microscopic analysis; format: functional, cell-based; details: dose 100-250 nM, time 48.0 hrs
[32] = test system: Mitochondrial membrane; test: Induction of mitochondrial membrane depolarization in human A549 cells assessed as increase in monomer to aggregate ratio at 100 nM preincubated for 15 mins irradiated with 7.5 to 10 mW/cm^-2 red light by JC-1 fluorescent probe based flow cytometric analysis (reference value: 24.7+/-6.9); format: cell membranes
[33] = test system: Mitochondrial membrane; test: Induction of mitochondrial membrane depolarization in human A549 cells assessed as increase in monomer to aggregate ratio at 250 nM preincubated for 15 mins irradiated with 7.5 to 10 mW/cm^-2 red light by JC-1 fluorescent probe based flow cytometric analysis (reference value: 24.7+/-6.9); format: cell membranes
[34] = test system: Mitochondrial membrane; test: Induction of mitochondrial membrane depolarization in human NCI-H1299 cells assessed as increase in monomer to aggregate ratio at 100 nM preincubated for 15 mins irradiated with 7.5 to 10 mW/cm^-2 red light by JC-1 fluorescent probe based flow cytometric analysis (reference value: 1.0+/-0.00); format: cell membranes
[35] = test system: Mitochondrial membrane; test: Induction of mitochondrial membrane depolarization in human NCI-H1299 cells assessed as increase in monomer to aggregate ratio at 250 nM preincubated for 15 mins irradiated with 7.5 to 10 mW/cm^-2 red light by JC-1 fluorescent probe based flow cytometric analysis (reference value: 1.0+/-0.00); format: cell membranes

SMILES: Oc1cccc(-c2c3nc(c(-c4cccc(O)c4)c4ccc([nH]4)c(-c4cccc(O)c4)c4nc(c(-c5cccc(O)c5)c5ccc2[nH]5)CC4)C=C3)c1 [TEMOPORFIN]
IC50 [1]: 84.1 nM

SMILES: C/C(=N\NS(=O)(=O)c1ccc(C)cc1)c1c2nc(c(-c3ccc(O)cc3)c3ccc([nH]3)c3ccc([nH]3)c(-c3ccc(O)cc3)c3ccc1[nH]3)C=C2
Activity [2]: 0.073
Activity [3]: 0.212
Activity [4]: 0.19
IC50 [1]: 892 nM
IC50 [5]: 277 nM
Activity [6]: Non-toxic
Activity [7]: Non-toxic
Activity [8]: 13.93%
Activity [11]: 17.95%

More lines, main results first:

Activity [2]: 0.111
Activity [3]: 0.211
SMILES: C/C(=N\NC(=O)c1ccccc1)c1c2nc(c(-c3ccccc3)c3ccc([nH]3)c3ccc([nH]3)c(-c3ccccc3)c3ccc1[nH]3)C=C2
Activity [4]: 0.11
IC50 [1]: 803 nM
IC50 [5]: 164 nM
Activity [6]: Non-toxic
Activity [7]: Non-toxic
Activity [8]: Non-toxic
Activity [9]: Non-toxic

Activity [10]: 0.002
SMILES: C/C(=N\Nc1ccc([N+](=O)[O-])cc1[N+](=O)[O-])c1c2nc(c(-c3ccccc3)c3ccc([nH]3)c3ccc([nH]3)c(-c3ccccc3)c3ccc1[nH]3)C=C2
Activity [6]: Non-toxic
Activity [7]: Non-toxic

Activity [2]: 0.12
Activity [3]: 0.22
SMILES: C1=Cc2nc1c(-c1ccccc1)c1ccc([nH]1)c(-c1ccccc1)c1ccc([nH]1)c1ccc([nH]1)c2-c1ccccc1
Activity [4]: 0.22
viability at 10 µM [12]: 93%

Activity [2]: 0.14
Activity [3]: 0.267
Activity [32]: 39.7
Activity [33]: 47.7
Activity [34]: 1.7
Activity [35]: 4
SMILES: C/C(=N/NC(=O)OC(C)(C)C)c1c2nc(c(-c3ccccc3)c3ccc([nH]3)c3ccc([nH]3)c(-c3ccccc3)c3ccc1[nH]3)C=C2
Activity [4]: 0.39
IC50 [1]: 94.9 nM
IC50 [5]: 25 nM
Activity [6]: Non-toxic
Activity [7]: Non-toxic
Activity [8]: Non-toxic
Activity [9]: Non-toxic
Activity [13]: Active
Activity [14]: Active
Activity [15]: Active
Activity [16]: Active
Activity [17]: 18%
Activity [18]: 20.8%
Activity [19]: 21%
Activity [20]: 17.5%
Activity [21]: 35.5%
Activity [22]: 38%
Activity [23]: 22.8%
Activity [24]: 26.5%
IC50 [25]: 373 nM
Activity [26]: >=75%
Activity [27]: 57.9%
Activity [28]: 28.8%
Activity [29]: 20.1%
Activity [30]: 69%
Activity [31]: Active
